Molecules are shown by their SMILES.

Consider five compounds from patent US11708376B2 (VIRGINIA TECH INTELLECTUAL PROPERTIES, INC., priority 2018, dated 2023).

For test [1], the system named is whole cells (NMuLi, C2Cl2, and L6 cells, isolated cardiomyocytes, human primary fibroblasts). Briefly: Oxygen consumption rate (OCR) in whole cells, Seahorse XF-24 Flux Analyzer. The class given is cell-based. The conditions noted are these: cell type for Table 1 not stated, read-out: OCR Activity (increase in OCR), binned EC50. The method, then:
Biological activities of the compounds synthesized is determined by determining increase in oxygen consumption rate (OCR).
Oxygen consumption rate (OCR) in whole cells is measured in general accordance with the method of Kenwood B M et al. (Mol. Met. (2014) 3: 114-123).
OCR is measured using a Seahorse XF-24 Flux Analyzer (Seahorse Biosciences, North Billerica, Mass.). NMuLi, C2Cl2, and L6 cells are seeded in a Seahorse 24-well tissue culture plate at a density of 3.5×10^4 cells/well, isolated cardiomyocytes at a density of 4×10^4 cells/well, and human primary fibroblasts at a density of 1.1×10^4 cells/well. The cells are then allowed to adhere for 24 h. Prior to the assay, the media is changed to unbuffered DMEM containing pyruvate and glutamine (Gibco #12800-017, pH=7.4 at 37° C.) and the cells are equilibrated for 30 mins at 37° C. Compounds are injected during the assay and OCR is measured using 2 min measurement periods.
2-3 wells are used per condition and averaged over three plates (n=6-9). Statistical significance is determined by two-way ANOVA with Bonfenoni's posttest.
Activities are reported as binned EC50 values: A=5 μM or less; B=>5 to 20 μM; C=over 20 μM; NA=no effect.

Test [2] deals with Male C57BL/6J mice on western diet. Nature of the test: Diet induced obesity mouse study. The conditions noted are these: WD containing 2-21, ~40 mg/kg/day. Format: in vivo. From the text:
FIG. 1. Diet induced obesity reversal data, for mice given a regular chow diet, a Western diet, or a Western diet plus compound 2-21. FIG. 1A, Body mass versus time; FIG. 1B, fat mass (measured by EchoMRI) versus time; FIG. 1C, food intake (last 14 days) versus time.
Male C57BL/6J mice aged 3 months were assigned to either normal chow diet (Chow, n=5) or western diet (WD, n=10) for 28 days. After 28 days half of the WD group were switched to WD containing compound 2-21 at a concentration resulting in consumption of ˜40 mg/kg/day 1-112 (2-21 40 mpk). Body mass (A), fat mass (measured by EchoMRI (B)), and food intake (C. for the final 14 days) were recorded as indicated.

For orientation: EC50 means the concentration that produces a half-maximal response. For `COc1nc2[nH]c(C(F)(F)F)nc2nc1Nc1ccc(OC(F)(F)F)cc1F` [Compound 2-21, 6-methoxy-N-(2-fluoro-4-(trifluoromethoxy)phenyl)-2-(trifluoromethyl)-1H-imidazo[4,5-b]pyrazin-5-amine], the EC50 in test [1] was at most 5 µM. Also, in test [2] (after 28 days of WD), the Body mass result is listed as “lost body weight”; the “Fat mass (measured by EchoMRI)” value was “lost body weight and fat mass”. In addition, the Food intake entry in test [2] (final 14 days) is recorded as “without a significant change in food intake”.

For `COc1nc2[nH]c(C(F)(F)F)nc2nc1Nc1ccc(Cl)cc1` [Compound 2-26, 6-methoxy-N-(4-chlorophenyl)-2-(trifluoromethyl)-1H-imidazo[4,5-b]pyrazin-5-amine], the concentration for a half-maximal effect (EC50) in test [1] lay within 5 to 20 µM. The same measure, in the same setting: to `COc1nc2[nH]c(C(F)(F)F)nc2nc1Nc1ccccc1C(F)(F)F` [Compound 2-17] belongs at most 5 µM; to `Oc1nc2[nH]c(C(F)(F)F)nc2nc1Nc1ccc(C(F)(F)F)cc1` [Compound 2-55, 5-((4-(trifluoromethyl)phenyl)amino)-2-(trifluoromethyl)-1H-imidazo[4,5-b]pyrazin-6-ol], over 20 µM. The same measure, in the same setting: in the case of `COc1nc2[nH]c(C(F)(F)F)nc2cc1Nc1ccc(OC(F)(F)F)cc1C` [Compound 2-74, 5-methoxy-N-(2-methyl-4-(trifluoromethoxy)phenyl)-2-(trifluoromethyl)-3H-imidazo[4,5-b]pyridin-6-amine] it was at most 5 µM.
